Results taken from article PMC5874719, “A π-Halogen Bond of Dibenzofuranones with the Gatekeeper Phe113 in Human Protein Kinase CK2 Leads to Potent Tight Binding Inhibitors” (Pharmaceuticals, 2018).
pIC50: −log10 of the molar value.

How the values were obtained:
[1] = biological target: T1, surface displayed CK2α + CK2β (CK2α containing human CK2 holoenzyme) (Homo sapiens, UniProt P68400); experiment: whole-cell CK2 selectivity assay, holoenzyme surface displayed on E. coli; type: biochemical; details: 600 µM ATP, 100 µM substrate peptide
T1 construct: surface-display (autodisplay) carrier protein; made in house; host or cells: Escherichia coli BL21 (DE3), enzyme left on the cell surface
T1 sequence (P68400 whole entry): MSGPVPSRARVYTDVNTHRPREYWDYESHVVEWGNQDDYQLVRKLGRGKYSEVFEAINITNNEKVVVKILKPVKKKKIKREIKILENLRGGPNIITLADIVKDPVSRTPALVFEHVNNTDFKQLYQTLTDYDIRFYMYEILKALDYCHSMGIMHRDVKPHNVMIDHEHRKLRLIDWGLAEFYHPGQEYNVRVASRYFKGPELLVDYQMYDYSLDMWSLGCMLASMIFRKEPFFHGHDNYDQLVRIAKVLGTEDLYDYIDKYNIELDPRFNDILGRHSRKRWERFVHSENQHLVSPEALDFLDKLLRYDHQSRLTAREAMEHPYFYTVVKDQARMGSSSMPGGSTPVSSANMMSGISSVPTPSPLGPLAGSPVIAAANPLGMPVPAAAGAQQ
T1 sequence (P67870 whole entry partner): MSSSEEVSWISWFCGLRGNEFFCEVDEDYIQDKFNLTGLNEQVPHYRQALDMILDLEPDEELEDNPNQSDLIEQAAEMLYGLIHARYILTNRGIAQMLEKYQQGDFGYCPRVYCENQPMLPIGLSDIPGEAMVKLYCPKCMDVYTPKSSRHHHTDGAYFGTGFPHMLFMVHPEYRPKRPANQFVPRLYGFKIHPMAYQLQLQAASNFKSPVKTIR
Excerpt: We recently reported a whole cell CK2 activity assay, which can be used for testing the selectivity of compounds towards CK2α and CK2α’ [47]. It is based on the surface display of the human CK2 subunits, either α or α’ together with β on E. coli, were they are able to form a functional tetrameric holoenzymes, either ααββ or α’α’ββ, depending on which α isoform has been expressed. This technique was used to investigate whether 4a or 5 have preference to one of the two catalytic isoforms of CK2.
For this purpose, their IC50 were determined following the protocol of the recently described whole-cell CK2 selectivity assay. In summary, 78 µL of a bacterial suspension of Escherichia coli BL21 (DE3) either surface displaying CK2α + CK2β or CK2α’ + CK2β in kinase buffer (50 mM Tris/HCl, pH 8.5, 100 mM NaCl, 10 mM MgCl2 and 1 mM DTT) were supplemented with 2 µL of the test compound dissolved in DMSO and incubated at 37 °C and 400 rpm for 10 min. CK2 reactions were started by the addition of 120 µL of assay buffer (25 mM Tris/HCl, pH 7.5, 150 mM NaCl, 5 mM MgCl2, 1 mM DTT, 167 µM substrate peptide […] and 1 mM ATP) leading to a total reaction volume of 200 µL with final concentrations of 100 µM for the substrate peptide and 600 µM for ATP. […] After the samples were incubated for 120 min at 37 °C and 400 rpm, the CK2 presenting bacteria were removed by centrifugation (3850× g, 5 min, 4 °C). The obtained supernatants were transferred to the wells of a 96 well-microplate and finally supplemented with EDTA to a concentration of 12.5 mM to definitely stop the enzymatic reactions. The samples were then subjected to a Beckman Coulter pa800 plus (Krefeld, Germany) CE system and analyzed for phosphorylation of the substrate peptide. Samples containing pure DMSO served as controls for 0% inhibition and samples additionally lacking ATP served as controls for 100% inhibition. […] IC50 values were calculated from the resulting dose-response curves.
CK2α’ + CK2β (right column).
Mean values ± standard errors of
the means (SEM) are shown. […]

[2] = tested on: cellular CK2 in ARPE19 cells; experiment: cellular CK2 activity after treatment of cells (in vitro phosphorylation assay of cell extracts); type: cell-based, human; details: for cellular CK2 activity reduced to: control = 100%
Experimental: (§1) Figure 4 Expression of CK2 in prostate cancer cell line LNCaP and non-neoplastic retinal pigment epithelial cell line ARPE19 and inhibition of intracellular activity by dibenzofurans. (A) Cells were extracted with RIPA buffer. 50 μg cell extract was separated on a 12.5% SDS polyacrylamide gel and transferred to a PVDF membrane followed by Western blotting with anti-CK2α (1A5), anti-CK2α’ (#30), anti-CK2α (6D5) and anti-GAPDH antibodies. GAPDH was used as a loading control. (B) ARPE19 or LNCaP cells were treated with DMSO as control (0 μM) or with 25 or 50 μM 4b, 4a or 5 for 24 or 48 h. Kinase activity of CK2 in the cell extracts was measured with the synthetic CK2 specific peptide substrate, […], in the presence of [[^32P]γATP. Results from at least three individual experiments are shown; the activity in the control cells was set to 100%.
(§2) ARPE19 and LNCaP cells were treated with 0, 25 or 50 µM of the different dibenzofuran derivatives 4b, 4a and 5 for 24 and 48 h before being harvested. Proteins were extracted and CK2 kinase activity was measured by an in vitro phosphorylation assay using the CK2 specific peptide substrate […] and radiolabeled [[^32P]γATP. The activity as measured was normalized to equal protein amounts. The relative CK2 activity of at least three independent experiments is given as bar graphs in Figure 4B. In ARPE19 cells CK2 activity was strongly repressed by all inhibitors. […] For 5 a weaker but dose-dependant effect was observed. 25 µM reduced the cellular CK2 activity to 80% and with 50 µM the activity was reduced to 40%. In LNCaP cells the results were essentially similar to those made in ARPE19 cells. However, the repression of activity by 4b and 4a was not as strong as in ARPE19 cells. 4b reduced the activity to 50%, 4a to 40%. The outcome using 5 was quite similar to the effects observed in ARPE19 cells: a reduction to roughly 80% when using 25 µM, which was enhanced to 40% when using 50 µM. This also indicated cell penetration of compounds 4a, 4b, and 5. A more direct evidence for intracellular inhibition of CK2 could be obtained by measuring the phosphorylation of endogenous natural substrates (biomarker analysis). […] With respect to their results and taking into consideration that the logP values of compounds 4a, 4b, and 5 as given in Table 2 are not of substantial difference, we conclude that the inhibitors were able to cross the cell membrane and exerted a similar inhibitory effect on intracellular CK2 activity in both cell lines.
(§3) ARPE19 cells (ATCC Number: CRL-2302), retinal pigment epithelia (RPE) cells, were maintained at 37 °C and 5% CO2 in Dulbecco’s modified Eagles medium (DMEM) supplemented with 2 mM L-glutamine, 1 mM gentamicin and 10% fetal calf serum (FCS) at 37 °C in an atmosphere enriched with 5% CO2. The hormone-sensitive prostate cancer cell line LNCaP (ATCC: CRL-1740, passage number 30–40) was cultured in RPMI1640 (Sigma-Aldrich Chemie GmbH, Munich, Germany) supplemented with 10% fetal bovine serum and 2 mM L-glutamine at 37 °C in an atmosphere enriched with 5% CO2. 4b, 4a and 5 were dissolved in DMSO as a 10 mM stock solution and cells were treated in the concentrations and times as indicated. Pure DMSO was applied as control. For the evaluation of cell morphology ARPE19 and LNCaP cells were analysed with bright field microscopy using a Axiovert microscope from Zeiss (Jena, Germany).
(§4) For harvesting cells—including floating cells—were scraped off the plate with a rubber policeman and sedimented by centrifugation (7 min, 4 °C, 400× g). Cells were washed with cold phosphate buffered saline (PBS) and the cell pellet was lysed with the double volume of RIPA buffer (50 mM Tris/HCl, pH 8.0, 150 mM NaCl, 0.5% sodium desoxycholate, 1% Triton X-100, 0.1% sodium dodecylsulfate) supplemented with the protease inhibitor cocktail completeTM (Roche Diagnostics GmbH, Mannheim, Germany). […]

[3] = tested on: cellular CK2 in LNCaP cells; experiment: as above; type: cell-based, human; details: control = 100%
Experimental: as §1, §2, §3, §4

[4] = 25 or 50 µM, 24 or 48 h (not specified)

pIC50 [1] | Compound | inhibition of cellular CK2 activity ([2]; ARPE19, 25 µM for 24 h) | cellular CK2 activity reduced to [3, 4] | cellular CK2 activity reduced to ([2]; ARPE19, 25 µM) | cellular CK2 activity reduced to ([2]; ARPE19, 50 µM) | cellular CK2 activity reduced to ([3]; 25 µM) | cellular CK2 activity reduced to ([3]; 50 µM) | inhibition of cellular CK2 activity ([2]; ARPE19, 25 or 50 µM, 24 or 48 h, independent of concentration and time)
7.21 | COc1ccc(N/C=C2\C(=O)CCc3c2oc2cc(Cl)c(O)c(Cl)c32)cc1 [4a, 7,9-dichloro-1,2-dihydro-8-hydroxy-4-[(4-methoxyphenylamino)methylene]dibenzo[b,d]furan-3(2H)-one] | 80% | 40% | – | – | – | – | –
7.01 | COc1ccc(/N=C/c2c(O)ccc3c2oc2cc(Cl)c(O)c(Cl)c23)cc1 [compound 5, (E)-1,3-dichloro-6-[(4-methoxyphenylimino)methyl]dibenzo[b,d]furan-2,7-diol] | – | – | 80% | 40% | roughly 80% | 40% | –
6.06 | Cc1ccc(NC=C2C(=O)CCc3c2oc2c(Cl)c(Cl)c(O)cc32)cc1 [4b, 6,7-dichloro-1,4-dihydro-8-hydroxy-4-[(4-methylphenylamino)methylene]dibenzo[b,d]furan-3(2H)-one] | – | 50% | – | – | – | – | 60%
